Literature values as cited in US20070122507A1, “Histone deacetylase and tumor necrosis factor converting enzyme inhibition” (priority 2005, published 2007).

Test system: R6/2 transgenic mouse models
Details: HD in R6/2 transgenic mouse models

Q: With `CCCC(=O)[O-].[Na+]` [sodium butyrate] as the compound, how does the motor deficits read?
A: reduces

Q: And the neuropathological effects?
A: reduces

Q: What about the survival of the same compound?
A: significantly enhances survival
